Values joined by “and” are separate entries in the source; they are usually repeats but may differ in a detail not shown here. Equal values may be shown once.
System: amphetamine-induced hyperactivity in rats
Test: amphetamine-induced hyperactivity model of mania in rats (automated activity monitors)
Type: in vivo, Sprague Dawley rats
Conditions: for Effect on amphetamine-induced locomotor activity versus control (ANOVA) / Effect on amphetamine-induced vertical activity versus control (ANOVA) / Effect on activity levels of rats (summary): 75 mg/kg IP; for Effect on amphetamine-induced locomotor activity versus control (ANOVA) / Effect on amphetamine-induced vertical activity versus control (ANOVA) / Locomotor activity, 10 min: 19 h and 3 h before testing; for Effect on amphetamine-induced locomotor activity versus control (ANOVA) / Effect on amphetamine-induced vertical activity versus control (ANOVA) / Effect on activity levels of rats (summary) / Anti-manic potential from the tested model (conclusion): result in words; for Effect on activity levels of rats (summary): amphetamine-treated rats; for Anti-manic potential from the tested model (conclusion): based on the tested model and doses; for Locomotor activity, 20 min, mean / Vertical activity, 20 min, mean / Locomotor activity, 30 min, mean / Vertical activity, 30 min, mean / Locomotor activity, 10 min, mean / Vertical activity, 10 min, mean / Locomotor activity, 20-10 min, mean / Vertical activity, 20-10 min, mean / Locomotor activity, 30-20 min, mean / Vertical activity, 30-20 min, mean: group mean n=10; for Locomotor activity, 20 min, mean / Vertical activity, 20 min, mean / Locomotor activity, 30 min, mean / Vertical activity, 30 min, mean / Locomotor activity, 10 min, mean / Vertical activity, 10 min, mean / Locomotor activity, 20-10 min, mean / Vertical activity, 20-10 min, mean / Locomotor activity, 30-20 min, mean / Vertical activity, 30-20 min, mean / Locomotor activity, 10 min / Locomotor activity, 20 min / Vertical activity, 20 min / Locomotor activity, 30 min / Vertical activity, 30 min / Vertical activity, 10 min / Locomotor activity, 20-10 min / Vertical activity, 20-10 min / Locomotor activity, 30-20 min / Vertical activity, 30-20 min: 75 mg/kg IP twice, amphetamine 0.5 mg/kg s.c.; for Locomotor activity, 20 min, mean / Vertical activity, 20 min, mean / Locomotor activity, 20 min / Vertical activity, 20 min: cumulative to 20 min; for Locomotor activity, 30 min, mean / Vertical activity, 30 min, mean / Locomotor activity, 30 min / Vertical activity, 30 min: cumulative to 30 min; for Locomotor activity, 10 min, mean / Vertical activity, 10 min, mean / Locomotor activity, 10 min / Vertical activity, 10 min: first 10 min; for Locomotor activity, 20-10 min, mean / Vertical activity, 20-10 min, mean / Locomotor activity, 20-10 min / Vertical activity, 20-10 min: second 10 min interval; for Locomotor activity, 30-20 min, mean / Vertical activity, 30-20 min, mean / Locomotor activity, 30-20 min / Vertical activity, 30-20 min: third 10 min interval; for Locomotor activity, 10 min / Locomotor activity, 20 min / Vertical activity, 20 min / Locomotor activity, 30 min / Vertical activity, 30 min / Vertical activity, 10 min / Locomotor activity, 20-10 min / Vertical activity, 20-10 min / Locomotor activity, 30-20 min / Vertical activity, 30-20 min: individual rat; for Locomotor activity, 20-10 min / Vertical activity, 20-10 min / Locomotor activity, 30-20 min / Vertical activity, 30-20 min: non cumulative
Experimental: Evaluation of possible anti-bipolar effects of compounds 1 to 4 was effected by an amphetamine-induced hyperactivity model of mania in rats. Each of the compounds was examined in a separate experiment and compared with a control group, treated with the same dose of amphetamine.
Twenty Sprague Dawley rats, weighing 200-250 g served for each of the four (4) experiments. Rats were housed in a colony room with constant temperature (22° C.), 12 h light/dark cycle and free access to food and water. Each experiment consisted of two groups (n=10 per group), one group was treated with the compound (1 to 4) and the other with vehicle solution. In experiments 1-4, the drugs were administered intraperitoneally (IP). All experimental procedures were conducted during the light phase of the light/dark cycle.
Amphetamine (0.5 mg/kg, sub-cutaneous (s.c.), diluted in de-ionized water) was injected into all rats (both groups of each experiment) immediately prior to behavioral testing. In experiments 1 to 4, compounds (R)-N-acetyl aminoindan (1); (S)-N-indanyl glycinamide HCl (2); (rac)-N-(2-aminoacetyl)-1-aminoindan HCl (3); and (S)-N-formyl aminoindan (4) were injected twice intraperitoneally (IP) at a dose of 75 mg/kg, 19 h and 3 h prior to behavioral testing in experiments. All compounds were suspended in a 5% methyl cellulose solution. The vehicle solution was administered to the control animals.
Immediately after amphetamine injection, rats were placed in automated activity monitors and their activity levels were scored every 10 minutes in the 30 minute time span for experiments 1 to 4. Activity scores included separate measurements of horizontal (locomotion) and of vertical (rearing) activity.
Repeated ANOVA measurements were used to examine the effects of compounds 1 to 4 on locomotor and on vertical activity. One factor measured the treatment of the rats using compounds 1 to 4 or the control vehicle; the repeated measure factor was time (three 10 minute intervals). Post hoc LSD (least significant difference) tests were used to determine whether significant differences occurred in different time periods, where relevant.

Structure (SMILES): Cl.NCC(=O)NC1CCc2ccccc21 (racemic) [Compound 3, (rac)-N-(2-aminoacetyl)-1-aminoindan HCl]
- Effect on amphetamine-induced locomotor activity versus control (ANOVA): significantly reduced locomotor activity
- Effect on amphetamine-induced vertical activity versus control (ANOVA): similar, albeit non-significant, effect
- Effect on activity levels of rats (summary): reduced the activity levels
- Anti-manic potential from the tested model (conclusion): show anti-manic potential
- Locomotor activity, 20 min, mean: 1037 counts
- Vertical activity, 20 min, mean: 32 counts
- Locomotor activity, 30 min, mean: 1397.4 counts
- Vertical activity, 30 min, mean: 48.3 counts
- Locomotor activity, 10 min, mean: 494.4 counts
- Vertical activity, 10 min, mean: 23.1 counts
- Locomotor activity, 20-10 min, mean: 542.6 counts
- Vertical activity, 20-10 min, mean: 8.9 counts
- Locomotor activity, 30-20 min, mean: 360.4 counts
- Vertical activity, 30-20 min, mean: 16.3 counts
- Locomotor activity, 10 min (HCl): 379 counts and 525 counts and 338 counts and 553 counts and 449 counts and 349 counts and 584 counts and 614 counts and 537 counts and 616 counts
- Locomotor activity, 20 min (HCl): 1214 counts and 1196 counts and 621 counts and 1303 counts and 862 counts and 663 counts and 1104 counts and 1349 counts and 1095 counts and 963 counts
- Vertical activity, 20 min (HCl): 0 counts and 33 counts and 11 counts and 91 counts and 26 counts and 5 counts and 66 counts (2×) and 1 counts and 21 counts
- Locomotor activity, 30 min (HCl): 1678 counts and 1507 counts and 691 counts and 1619 counts and 1112 counts and 917 counts and 1576 counts and 1810 counts and 1758 counts and 1306 counts
- Vertical activity, 30 min (HCl): 1 counts and 35 counts (2×) and 11 counts and 101 counts and 5 counts and 75 counts and 100 counts and 38 counts and 82 counts
- Vertical activity, 10 min (HCl): 0 counts and 17 counts and 7 counts and 27 counts and 11 counts and 5 counts and 36 counts and 58 counts and 16 counts and 54 counts
- Locomotor activity, 20-10 min (HCl): 835 counts and 671 counts and 283 counts and 750 counts and 413 counts and 314 counts and 520 counts and 735 counts and 558 counts and 347 counts
- Vertical activity, 20-10 min (HCl): 0 counts (2×) and 16 counts and 4 counts and 64 counts and 15 counts and 30 counts and −57 counts and 5 counts and 12 counts
- Locomotor activity, 30-20 min (HCl): 464 counts and 311 counts and 70 counts and 316 counts and 250 counts and 254 counts and 472 counts and 461 counts and 663 counts and 343 counts
- Vertical activity, 30-20 min (HCl): 1 counts and 2 counts and 0 counts (2×) and 10 counts and 9 counts (2×) and 99 counts and 17 counts and 16 counts

Structure (SMILES): CC(=O)N[C@@H]1CCc2ccccc21 [Compound 1, (R)-N-acetyl aminoindan]
- Effect on amphetamine-induced locomotor activity versus control (ANOVA): significantly reduced locomotion
- Effect on activity levels of rats (summary): reduced the activity levels
- Anti-manic potential from the tested model (conclusion): show anti-manic potential
- Locomotor activity, 20 min, mean: 945.8 counts
- Vertical activity, 20 min, mean: 22.5 counts
- Locomotor activity, 30 min, mean: 1395.6 counts
- Vertical activity, 30 min, mean: 33.8 counts
- Locomotor activity, 10 min, mean: 545.3 counts
- Vertical activity, 10 min, mean: 14.2 counts
- Locomotor activity, 20-10 min, mean: 400.5 counts
- Vertical activity, 20-10 min, mean: 8.3 counts
- Locomotor activity, 30-20 min, mean: 449.8 counts
- Vertical activity, 30-20 min, mean: 11.3 counts
- Locomotor activity, 10 min: 600 counts and 448 counts and 718 counts and 740 counts and 570 counts and 426 counts and 395 counts and 462 counts and 681 counts and 413 counts
- Locomotor activity, 20 min: 930 counts and 677 counts and 1125 counts and 1026 counts and 1147 counts and 802 counts and 800 counts and 794 counts and 1361 counts and 796 counts
- Vertical activity, 20 min: 34 counts and 12 counts (2×) and 18 counts and 29 counts and 37 counts and 28 counts and 11 counts and 39 counts and 5 counts
- Locomotor activity, 30 min: 1436 counts and 1027 counts and 1653 counts and 1317 counts and 1776 counts and 1230 counts and 1053 counts and 1150 counts and 2064 counts and 1250 counts
- Vertical activity, 30 min: 62 counts and 18 counts and 20 counts and 31 counts and 53 counts and 38 counts and 12 counts and 21 counts and 76 counts and 7 counts
- Vertical activity, 10 min: 27 counts and 9 counts and 16 counts (2×) and 29 counts and 20 counts and 5 counts and 10 counts and 6 counts and 4 counts
- Locomotor activity, 20-10 min: 330 counts and 229 counts and 407 counts and 286 counts and 577 counts and 376 counts and 405 counts and 332 counts and 680 counts and 383 counts
- Vertical activity, 20-10 min: 7 counts (2×) and 3 counts and 2 counts and 0 counts and 17 counts and 12 counts and 1 counts (2×) and 33 counts
- Locomotor activity, 30-20 min: 506 counts and 350 counts and 528 counts and 291 counts and 629 counts and 428 counts and 253 counts and 356 counts and 703 counts and 454 counts
- Vertical activity, 30-20 min: 28 counts and 6 counts and 2 counts (3×) and 16 counts and 10 counts (2×) and 0 counts and 37 counts

Structure (SMILES): Cl.NCC(=O)N[C@H]1CCc2ccccc21 [Compound 2, (S)-N-indanyl glycinamide HCl]
- Effect on amphetamine-induced locomotor activity versus control (ANOVA): did not have a significant effect
- Effect on amphetamine-induced vertical activity versus control (ANOVA): significantly increased the level of vertical activity
- Effect on activity levels of rats (summary): surprisingly increased activity
- Anti-manic potential from the tested model (conclusion): does not show anti-manic potential
- Locomotor activity, 20 min, mean: 1277.9 counts
- Vertical activity, 20 min, mean: 96.3 counts
- Locomotor activity, 30 min, mean: 1740.5 counts
- Vertical activity, 30 min, mean: 125 counts
- Locomotor activity, 10 min, mean: 626 counts
- Vertical activity, 10 min, mean: 49.3 counts
- Locomotor activity, 20-10 min, mean: 651.9 counts
- Vertical activity, 20-10 min, mean: 47 counts
- Locomotor activity, 30-20 min, mean: 462.6 counts
- Vertical activity, 30-20 min, mean: 28.7 counts
- Locomotor activity, 10 min (HCl): 531 counts and 603 counts and 604 counts and 619 counts and 663 counts (2×) and 616 counts and 670 counts and 643 counts and 648 counts
- Locomotor activity, 20 min (HCl): 1096 counts and 1197 counts and 1334 counts and 1140 counts and 1525 counts and 1508 counts and 1366 counts and 1272 counts and 1325 counts and 1016 counts
- Vertical activity, 20 min (HCl): 51 counts and 133 counts and 62 counts and 84 counts and 101 counts and 236 counts and 118 counts and 50 counts and 70 counts and 58 counts
- Locomotor activity, 30 min (HCl): 1547 counts and 1606 counts and 1964 counts and 1598 counts and 1908 counts and 2038 counts and 1670 counts and 1608 counts and 2047 counts and 1419 counts
- Vertical activity, 30 min (HCl): 75 counts and 168 counts and 98 counts and 96 counts and 104 counts and 321 counts and 126 counts and 58 counts and 116 counts and 88 counts
- Vertical activity, 10 min (HCl): 32 counts and 82 counts and 31 counts and 38 counts (3×) and 95 counts and 66 counts and 30 counts and 43 counts
- Locomotor activity, 20-10 min (HCl): 565 counts and 594 counts and 730 counts and 521 counts and 862 counts and 892 counts and 696 counts and 629 counts and 677 counts and 353 counts
- Vertical activity, 20-10 min (HCl): 19 counts and 51 counts and 31 counts and 46 counts and 63 counts and 141 counts and 52 counts and 12 counts and 40 counts and 15 counts
- Locomotor activity, 30-20 min (HCl): 451 counts and 409 counts and 630 counts and 458 counts and 383 counts and 530 counts and 304 counts and 336 counts and 722 counts and 403 counts
- Vertical activity, 30-20 min (HCl): 24 counts and 35 counts and 36 counts and 12 counts and 3 counts and 85 counts and 8 counts (2×) and 46 counts and 30 counts
